EPA's ToxRefDB 2

Columns and labels:
[1] = system: rat; details: Multigenerational reproductive toxicity study, sprague dawley, Oral, Feed, dose end: 2 generation
[2] = system: rat; details: Prenatal developmental toxicity study, other, Oral, Gavage/Intubation, dose end: 16 GD
[3] = system: dog; details: Chronic toxicity, beagle, Oral, Feed, dose end: 52 week, group: systemic
[4] = system: mouse; details: Combined chronic toxicity/carcinogenicity; cd1; Oral; Feed; dose end: 104 week; group: systemic; systemic / in life observation / body weight / body weight gain + systemic / in life observation / clinical signs / lacrimation + systemic…
[5] = system: rat; details: Combined chronic toxicity/carcinogenicity, sprague dawley, Oral, Feed, dose end: 104 week, group: systemic
[6] = system: rabbit; details: Prenatal developmental toxicity study, new zealand white, Oral, Gavage/Intubation, dose end: 19 GD
[7] = system: mouse; details: Prenatal developmental toxicity study, other, Oral, Gavage/Intubation, dose end: 15 GD
[8] = system: rat; details: Combined chronic toxicity/carcinogenicity, sprague dawley, Oral, Feed, dose end: 2 year, group: systemic
[9] = system: rat; details: Prenatal developmental toxicity study, sprague dawley, Oral, Feed, dose end: 16 GD
[10] = system: rat; details: Subchronic oral toxicity in rodents, sprague dawley, Feed, dose end: 90 day, group: systemic
[11] = system: rat; details: Multigenerational reproductive toxicity study, other, Oral, Feed, dose end: 2 generation
[12] = system: dog; details: Subchronic oral toxicity in nonrodent, beagle, Feed, dose end: 90 day, group: systemic
[13] = system: rabbit; details: Prenatal developmental toxicity study, new zealand white, Oral, Gavage/Intubation, dose end: 19 GD; remark: listed apart in the source
[14] = system: rat; details: Prenatal developmental toxicity study, sprague dawley, Oral, Gavage/Intubation, dose end: 16 GD
[15] = system: rat; details: Prenatal developmental toxicity study, sprague dawley, Oral, Gavage/Intubation, dose end: 16 GD; remark: listed apart in the source
[16] = group: offspring, systemic / in life observation / body weight / offspring (pup) weight gain + developmental / offspring survival late / [other] / [other]
[17] = group: offspring, systemic / in life observation / body weight / offspring (pup) weight gain + developmental / offspring survival late / [other] / [other] + …
[18] = group: parental, systemic / pathology microscopic / eye / cataract + systemic / in life observation / body weight / body weight gain + systemic / in life …
[19] = group: parental, systemic / pathology microscopic / eye / cataract + systemic / in life observation / clinical signs / tongue ulcers
[20] = group: developmental, developmental / developmental malformation / bone / incomplete ossification + developmental / developmental malformation / bone / manus …
[21] = group: maternal, systemic / in life observation / body weight / body weight gain + systemic / in life observation / food consumption / food consumption
[22] = group: maternal, systemic / in life observation / body weight / body weight gain + systemic / in life observation / food consumption / food consumption + …
[23] = group: maternal, systemic / in life observation / food consumption / food consumption
[24] = systemic / pathology microscopic / eye / opacity + systemic / organ weight / kidney / absolute + systemic / organ weight / kidney / relative…
[25] = systemic / pathology microscopic / eye / opacity
[26] = group: developmental, developmental / developmental malformation / bone / incomplete ossification
[27] = group: developmental, developmental / developmental malformation / bone / incomplete ossification + developmental / developmental malformation / bone / full …
[28] = group: developmental, developmental / developmental malformation / bone / [other] + developmental / developmental malformation / eye / open eye + developmental / …
[29] = group: developmental, developmental / developmental malformation / bone / [other] + developmental / developmental malformation / heart / defect a-v septum + …
[30] = group: maternal, systemic / in life observation / clinical signs / abnormal posture + systemic / in life observation / clinical signs / drooping eyelids (…
[31] = group: maternal, systemic / in life observation / clinical signs / piloerection + systemic / in life observation / clinical signs / respiration (rales) + …
[32] = systemic / organ weight / liver / relative to body weight + systemic / pathology microscopic / liver / hypertrophy
[33] = systemic / organ weight / liver / relative to body weight + systemic / pathology microscopic / liver / hypertrophy + systemic / clinical …
[34] = group: developmental, developmental / developmental malformation / bone / extra ossification site + developmental / developmental malformation / bone / incomplete…
[35] = group: maternal, reproductive / reproductive performance / resorptions / resorptions + systemic / in life observation / food consumption / food consumption…
[36] = group: offspring, developmental / offspring survival late / viability index / viability index
[37] = group: offspring, developmental / offspring survival late / viability index / viability index + systemic / in life observation / body weight / offspring (pup…
[38] = group: parental, systemic / pathology microscopic / liver / hypertrophy + systemic / in life observation / body weight / body weight + systemic / pathology …
[39] = group: parental, systemic / pathology microscopic / liver / hypertrophy + systemic / in life observation / mortality / mortality
[40] = group: reproductive, reproductive / reproductive performance / gestational length / gestational length
[41] = group: reproductive, reproductive / reproductive performance / gestational length / gestational length + reproductive / offspring survival early / litter size / …
[42] = systemic / pathology microscopic / stomach / hyperplasia
[43] = group: developmental, systemic / in life observation / body weight / fetal weight
[44] = group: maternal, reproductive / reproductive performance / aborted / aborted + reproductive / reproductive performance / resorptions / resorptions + systemic…
[45] = group: developmental, developmental / developmental malformation / kidney / absent renal papilla + developmental / developmental malformation / ureter / …
[46] = group: maternal, systemic / organ weight / liver / relative to body weight
[47] = group: maternal, systemic / organ weight / liver / relative to body weight + systemic / in life observation / body weight / body weight gain + systemic / in …
[48] = group: developmental, developmental / developmental malformation / kidney / small renal papilla + developmental / developmental malformation / ureter / distended
[49] = group: developmental, developmental / developmental malformation / kidney / small renal papilla + developmental / developmental malformation / ureter / distended…

[Br-].[Br-].c1cc[n+]2c(c1)-c1cccc[n+]1CC2 [Diquat dibromide]
NEL [1, 16]: 4 mg/kg/day | NOAEL [1, 16]: 4 mg/kg/day | LEL [1, 17]: 12 mg/kg/day | LOAEL [1, 17]: 12 mg/kg/day | NEL [1, 18]: 0.8 mg/kg/day | NOAEL [1, 18]: 0.8 mg/kg/day | LEL [1, 19]: 4 mg/kg/day | LOAEL [1, 19]: 4 mg/kg/day | LEL [2, 20]: 40 mg/kg/day | LOAEL [2, 20]: 40 mg/kg/day | NEL [2, 20]: 12 mg/kg/day | NOAEL [2, 20]: 12 mg/kg/day | LOAEL [2, 21]: 12 mg/kg/day | NOAEL [2, 22]: 4 mg/kg/day | LEL [2, 23]: 4 mg/kg/day | NEL [2, 23]: < 4 mg/kg/day | LOAEL ([3]; systemic / pathology microscopic / eye / opacity + systemic / organ weight / epididymis / relative to body weight): 2.5 mg/kg/day | LEL ([3]; systemic / pathology microscopic / eye / opacity + systemic / organ weight / epididymis / relative to body weight + systemic / pathology …): 2.5 mg/kg/day | NEL [3, 24]: 0.5 mg/kg/day | NOAEL [3, 24]: 0.5 mg/kg/day | LEL [4]: 12 mg/kg/day | LOAEL [4]: 12 mg/kg/day | NEL [4]: 3.56 mg/kg/day | NOAEL [4]: 3.56 mg/kg/day | LOAEL ([5]; systemic / pathology microscopic / eye / cataract): 0.58 mg/kg/day | NOAEL ([5]; systemic / pathology microscopic / eye / cataract + systemic / in life observation / body weight / body weight gain + systemic / pathology …): 0.19 mg/kg/day | LEL [5, 25]: 0.24 mg/kg/day | NEL [5, 25]: < 0.24 mg/kg/day | LEL [6, 26]: 1 mg/kg/day | NEL [6, 26]: < 1 mg/kg/day | LOAEL [6, 27]: 10 mg/kg/day | NOAEL [6, 27]: 3 mg/kg/day | LEL [6, 21]: 3 mg/kg/day | LOAEL [6, 21]: 3 mg/kg/day | NEL [6, 22]: 1 mg/kg/day | NOAEL [6, 22]: 1 mg/kg/day | LOAEL [7, 28]: 2 mg/kg/day | NOAEL [7, 28]: 1 mg/kg/day | LEL [7, 29]: 1 mg/kg/day | NEL [7, 29]: < 1 mg/kg/day | LOAEL [7, 30]: 2 mg/kg/day | NOAEL [7, 30]: 1 mg/kg/day | LEL [7, 31]: 1 mg/kg/day | NEL [7, 31]: < 1 mg/kg/day

C[Si](Cn1cncn1)(c1ccc(F)cc1)c1ccc(F)cc1 [Flusilazole]
LEL [8, 32]: 2.6 mg/kg/day | LOAEL [8, 32]: 2.6 mg/kg/day | NEL [8, 33]: 0.53 mg/kg/day | NOAEL [8, 33]: 0.53 mg/kg/day | LOAEL [9, 34]: 300 ppm | NEL [9, 34]: 50 ppm | NOAEL [9, 34]: 100 ppm | LEL ([9]; group: developmental, developmental / developmental malformation / bone / extra ossification site + developmental / developmental malformation / bone / unossified): 100 ppm | LOAEL ([9]; group: maternal, reproductive / reproductive performance / resorptions / resorptions + systemic / in life observation / food consumption / food consumption): 300 ppm | LEL [9, 35]: 300 ppm | NEL [9, 35]: 100 ppm | NOAEL [9, 35]: 100 ppm | LOAEL ([10]; systemic / clinical chemistry / cholesterol / cholesterol + systemic / pathology microscopic / urinary bladder / hyperplasia): 27 mg/kg/day | NOAEL ([10]; systemic / clinical chemistry / cholesterol / cholesterol + systemic / pathology microscopic / urinary bladder / hyperplasia + systemic / …): 9 mg/kg/day | LEL ([10]; systemic / in life observation / body weight / body weight): 11 mg/kg/day | NEL ([10]; systemic / in life observation / body weight / body weight + systemic / clinical chemistry / cholesterol / cholesterol + systemic / organ …): 2 mg/kg/day | NEL [11, 36]: 3.5 mg/kg/day | NOAEL [11, 36]: 3.5 mg/kg/day | LEL [11, 37]: 17.5 mg/kg/day | LOAEL [11, 37]: 17.5 mg/kg/day | LEL [11, 38]: 3.5 mg/kg/day | LOAEL [11, 38]: 3.5 mg/kg/day | NEL [11, 39]: 0.35 mg/kg/day | NOAEL [11, 39]: 0.35 mg/kg/day | NEL [11, 40]: 3.5 mg/kg/day | NOAEL [11, 40]: 3.5 mg/kg/day | LEL [11, 41]: 17.5 mg/kg/day | LOAEL [11, 41]: 17.5 mg/kg/day | NOAEL ([12]; systemic / organ weight / liver / absolute + systemic / organ weight / liver / relative to body weight + systemic / clinical chemistry / …): 0.9 mg/kg/day | LOAEL ([12]; systemic / organ weight / liver / absolute + systemic / organ weight / liver / relative to body weight + systemic / pathology microscopic / …): 4.3 mg/kg/day | LEL [12, 42]: 0.9 mg/kg/day | NEL [12, 42]: < 0.9 mg/kg/day | LEL [13, 43]: 35 mg/kg/day | LOAEL [13, 43]: 35 mg/kg/day | NEL [13, 43]: 12 mg/kg/day | NOAEL [13, 43]: 12 mg/kg/day | LEL [13, 44]: 35 mg/kg/day | LOAEL [13, 44]: 35 mg/kg/day | NEL [13, 44]: 12 mg/kg/day | NOAEL [13, 44]: 12 mg/kg/day | LEL [14, 45]: 0.4 mg/kg/day | LOAEL [14, 45]: 0.4 mg/kg/day | NEL [14, 45]: < 0.4 mg/kg/day | NOAEL [14, 45]: < 0.4 mg/kg/day | LEL [14, 46]: 50 mg/kg/day | LOAEL [14, 46]: 50 mg/kg/day | NEL [14, 47]: 10 mg/kg/day | NOAEL [14, 47]: 10 mg/kg/day | LEL [15, 48]: 10 mg/kg/day | LOAEL [15, 48]: 10 mg/kg/day | NEL [15, 49]: 2 mg/kg/day | NOAEL [15, 49]: 2 mg/kg/day | LEL [15, 22]: 100 mg/kg/day | LOAEL [15, 22]: 100 mg/kg/day | NEL [15, 22]: 10 mg/kg/day | NOAEL [15, 22]: 10 mg/kg/day
